biological target: T1, human NaV1.8 (hNaV1.8) ion channel (Homo sapiens, UniProt Q9Y5Y9); assay: Inhibition of Human NaV1.8 stably expressed in SH-SY-5Y cells (membrane potential dye fluorescence assay); assay type: cell-based; settings: SH-SY-5Y cells stably expressing hNaV1.8; FLIPR membrane potential dye; 10 μM pyrethroid, 250 nM TTX; test range 100 μM-0.05 μM; read-out: hNav1.8 IC50
T1 construct: expressed in transfected cells
Procedure: Inhibition of Human NaV1.8 stably expressed in SH-SY-5Y cells
A SH-SY-5Y neuroblastoma cell line stably expressing the human NaV1.8 (hNaV1.8) ion channel was constructed. This cell line has been used to develop a medium to high throughput assay for determining the ability of test compounds to inhibit membrane depolarisation mediated via the hNaV1.8 channel.
SH-SY-5Y hNaV1.8 are grown in adherent monolayer culture using 50:50 Ham's F-12/EMEM tissue culture medium supplemented with 15% (v/v) foetal bovine serum; 2 mM L-glutamine, 1% NEAA and 600 μg·ml^−1 Geneticin sulphate. Cells are removed from the tissue culture flask using trypsin/EDTA and re-plated into black walled, clear bottom 96-well assay plates at 50,000 cells·well^−1 24 hours prior to assay.
On the day of assay the cell assay plates are washed to remove cell culture medium using a sodium free assay buffer (145 mM tetramethyl ammonium chloride; 2 mM calcium chloride; 0.8 mM magnesium chloride hexahydrate; 10 mM HEPES; 10 mM glucose; 5 mM potassium chloride, pH 7.4). Fluorescent membrane potential dye solution (FLIPR™ membrane potential dye, Molecular Devices Corporation), containing 10 μM of a pyrethroid to prevent channel inactivation and 250 nM tetrodotoxin (TTX) to reduce interference from TTX-sensitive sodium channels present in the cell line. Test compound, initially dissolved in dimethyl sulfoxide but further diluted in sodium free buffer, is added to achieve the final test concentration range of 100 μM-0.05 μM.
Cell plates are incubated for 30 minutes at room temperature to allow equilibration of dye and test compound. Plates are then transferred to a fluorescence plate reader for fluorescence measurement using an excitation wavelength of 530 nm whilst measuring fluorescence emission at 565 nm. […] Membrane depolarisation is registered by an increase in fluorescence emission at 565 nm.
The change in fluorescence seen in each test well upon the addition of sodium containing buffer is calculated relative to the baseline fluorescence for that well. This figure is then used for calculating the IC50 for each test compound.

T1 sequence (Q9Y5Y9 whole entry): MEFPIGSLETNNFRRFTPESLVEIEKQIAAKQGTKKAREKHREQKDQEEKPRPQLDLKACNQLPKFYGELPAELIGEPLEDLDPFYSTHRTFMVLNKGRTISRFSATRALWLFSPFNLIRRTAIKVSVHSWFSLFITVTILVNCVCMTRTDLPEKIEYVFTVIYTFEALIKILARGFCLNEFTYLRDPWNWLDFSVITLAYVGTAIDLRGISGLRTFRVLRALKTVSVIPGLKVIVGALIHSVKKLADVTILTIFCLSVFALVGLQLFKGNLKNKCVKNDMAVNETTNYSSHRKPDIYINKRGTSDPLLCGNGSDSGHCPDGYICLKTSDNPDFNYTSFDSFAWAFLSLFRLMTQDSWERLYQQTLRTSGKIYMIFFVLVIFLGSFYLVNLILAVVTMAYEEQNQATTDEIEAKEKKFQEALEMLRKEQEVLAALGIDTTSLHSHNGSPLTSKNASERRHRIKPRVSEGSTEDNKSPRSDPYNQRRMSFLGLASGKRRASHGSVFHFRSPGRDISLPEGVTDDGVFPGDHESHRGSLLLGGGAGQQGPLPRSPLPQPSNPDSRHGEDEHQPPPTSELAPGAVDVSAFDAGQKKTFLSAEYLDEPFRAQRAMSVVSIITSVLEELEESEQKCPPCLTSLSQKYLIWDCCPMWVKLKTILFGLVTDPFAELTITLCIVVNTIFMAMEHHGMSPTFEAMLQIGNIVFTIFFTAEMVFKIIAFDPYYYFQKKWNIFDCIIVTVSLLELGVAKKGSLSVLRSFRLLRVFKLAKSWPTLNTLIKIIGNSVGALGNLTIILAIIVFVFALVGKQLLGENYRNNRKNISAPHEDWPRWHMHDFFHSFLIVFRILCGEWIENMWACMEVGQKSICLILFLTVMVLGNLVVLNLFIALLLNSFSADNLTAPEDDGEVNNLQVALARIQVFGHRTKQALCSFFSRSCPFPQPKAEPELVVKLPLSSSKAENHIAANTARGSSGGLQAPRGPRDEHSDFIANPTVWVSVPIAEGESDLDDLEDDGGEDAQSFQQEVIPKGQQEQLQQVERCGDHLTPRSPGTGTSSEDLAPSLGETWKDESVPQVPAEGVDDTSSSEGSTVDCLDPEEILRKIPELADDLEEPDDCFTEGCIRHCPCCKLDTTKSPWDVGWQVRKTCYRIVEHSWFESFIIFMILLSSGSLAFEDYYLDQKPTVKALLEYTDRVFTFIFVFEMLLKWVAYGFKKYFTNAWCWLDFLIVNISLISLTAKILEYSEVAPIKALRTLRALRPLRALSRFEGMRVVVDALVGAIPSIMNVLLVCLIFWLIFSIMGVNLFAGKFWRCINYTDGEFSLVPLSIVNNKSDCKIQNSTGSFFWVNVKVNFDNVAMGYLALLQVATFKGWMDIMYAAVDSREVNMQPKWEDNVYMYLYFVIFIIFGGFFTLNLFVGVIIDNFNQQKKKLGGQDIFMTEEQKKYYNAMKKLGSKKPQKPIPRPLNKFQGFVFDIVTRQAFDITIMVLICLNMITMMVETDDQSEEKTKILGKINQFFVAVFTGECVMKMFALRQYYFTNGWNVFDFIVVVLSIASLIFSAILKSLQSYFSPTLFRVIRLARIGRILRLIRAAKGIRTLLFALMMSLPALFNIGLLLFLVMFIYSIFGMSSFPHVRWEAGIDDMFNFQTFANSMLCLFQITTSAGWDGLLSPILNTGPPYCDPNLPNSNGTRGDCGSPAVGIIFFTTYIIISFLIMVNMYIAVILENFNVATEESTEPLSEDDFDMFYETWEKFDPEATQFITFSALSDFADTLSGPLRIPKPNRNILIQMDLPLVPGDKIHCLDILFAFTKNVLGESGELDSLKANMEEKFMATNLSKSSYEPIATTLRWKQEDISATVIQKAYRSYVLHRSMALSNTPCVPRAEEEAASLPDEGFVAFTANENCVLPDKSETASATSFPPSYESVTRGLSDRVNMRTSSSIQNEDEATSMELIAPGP

Question: Which IC50 does the source give for `O=C(Nc1ccc(Oc2ccccc2F)cc1)N1CC(NC2CCc3cc(F)ccc32)C1` (stereo not drawn) [Example 14, 3-(5-Fluoro-indan-1-ylamino)-azetidine-1-carboxylic acid [4-(2-fluoro-phenoxy)-phenyl]-amide] here?
Answer: 0.54 µM

Question: With `O=C(Nc1ccc(C(F)(F)F)cc1)N1CC(NC2CCCc3ccccc32)C1` (stereo not drawn) [Example 36, 3-(1,2,3,4-Tetrahydro-naphthalen-1-ylamino)-azetidine-1-carboxylic acid (4-trifluoromethyl-phenyl)-amide] as the compound, how does the IC50 read?
Answer: 2.77 µM

Question: For `O=C(Cc1ccc(Oc2ccc(F)cc2)cc1)N1CC(NC2Cc3ccccc3C2)C1` [Example 49, 2-[4-(4-Fluoro-phenoxy)-phenyl]-1-[3-(indan-2-ylamino)-azetidin-1-yl]-ethanone], which IC50 is on record?
Answer: 0.43 µM

Question: For `Cc1ccccc1C(C)NC1CN(C(=O)Nc2cccc(C(F)(F)F)c2)C1` (stereo not drawn) [Example 75, 3-(1-o-Tolyl-ethylamino)-azetidine-1-carboxylic acid (3-trifluoromethyl-phenyl)-amide], which IC50 is on record?
Answer: 2.26 µM

Question: `O=C(Nc1ccc(Oc2ccccc2)cc1)N1CC(NC2CCc3cc(F)ccc32)C1` (stereo not drawn) [Example 27, 3-(5-Fluoro-indan-1-ylamino)-azetidine-1-carboxylic acid (4-phenoxy-phenyl)-amide] was tested. Which IC50 did it give?
Answer: 0.27 µM

Question: How did the IC50 turn out when `O=C(Nc1ccc(Oc2ccc(F)cc2)cc1)N1CC(NC2CCc3cc(O)ccc32)C1` (stereo not drawn) [Example 12, 3-(5-Hydroxy-indan-1-ylamino)-azetidine-1-carboxylic acid [4-(4-fluoro-phenoxy)-phenyl]-amide] was run?
Answer: 1.35 µM

Question: `CN(C1CN(C(=O)Nc2cccc(C(F)(F)F)c2)C1)C1CCc2cc(F)ccc21` (stereo not drawn) [Example 40, 3[(5-Fluoro-indan-1-yl)-methyl-amino]-azetidine-1-carboxylic acid (3-trifluoromethyl-phenyl)-amide] was tested. Which IC50 did it give?
Answer: 2.3 µM

Question: How did the IC50 turn out when `CCCCOc1cccc(NC(=O)N2CC(NC(C)c3ccccc3C)C2)c1` (stereo not drawn) [Example 68, 3-(1-o-Tolyl-ethylamino)-azetidine-1-carboxylic acid (3-butoxy-phenyl)-amide] was run?
Answer: 0.83 µM

Question: How did the IC50 turn out when `CCCCOc1cccc(NC(=O)N2CC(NC(C)c3ccc(F)cc3)C2)c1` (stereo not drawn) [Example 69, 3-[1-(4-Fluoro-phenyl)-ethylamino]-azetidine-1-carboxylic acid (3-butoxy-phenyl)-amide] was run?
Answer: 1.32 µM

Question: `CC(NC1CN(C(=O)Nc2ccc(C(F)(F)F)cc2)C1)c1ccc(Oc2ccccc2)cc1` (stereo not drawn) [Example 78, 3-[1-(4-Phenoxy-phenyl)-ethylamino]-azetidine-1-carboxylic acid (4-trifluoromethyl-phenyl)-amide] was tested. Which IC50 did it give?
Answer: 1.3 µM

Question: How did the IC50 turn out when `CC(NC1CN(C(=O)Nc2ccc(Oc3ccc(F)cc3)cc2)C1)c1ccccc1Cl` (stereo not drawn) [Example 94, 3-[1-(2-Chloro-phenyl)-ethylamino]-azetidine-1-carboxylic acid [4-(4-fluoro-phenoxy)-phenyl]-amide] was run?
Answer: 0.54 µM

Question: How did the IC50 turn out when `O=C(Nc1ccc(Oc2ccccc2)cc1)N1CC(NCc2c(F)cccc2F)C1` [Example 128, 3-(2,6-Difluoro-benzylamino)-azetidine-1-carboxylic acid (4-phenoxy-phenyl)-amide] was run?
Answer: 0.83 µM

Question: Which IC50 does the source give for `Cc1ccccc1C(C)N(C)C1CN(C(=O)Nc2cccc(C(F)(F)F)c2)C1` (stereo not drawn) [Example 96, 3-[Methyl-(1-o-tolyl-ethyl)-amino]-azetidine-1-carboxylic acid (3-trifluoromethyl-phenyl)-amide] here?
Answer: 3.02 µM

Question: For `O=C(Cc1ccc(Oc2ccc(F)cc2)cc1)N1CC(NC2Cc3ccc(F)cc3C2)C1` (stereo not drawn) [Example 50, 1-[3-(5-Fluoro-indan-2-ylamino)-azetidin-1-yl]-2-[4-(4-fluoro-phenoxy)-phenyl]-ethanone], which IC50 is on record?
Answer: 0.78 µM

Question: How did the IC50 turn out when `O=C(Nc1cccc(C(F)(F)F)c1)N1CC(NC2CCc3cc(F)ccc32)C1` (stereo not drawn) [Example 24, 3-(5-Fluoro-indan-1-ylamino)-azetidine-1-carboxylic acid (3-trifluoromethyl-phenyl)-amide] was run?
Answer: 2.68 µM

Reference: US20100105651A1, “ANTAGONISTS OF SNS SODIUM CHANNELS” (priority 2005, published 2010)
